What was measured:
[1] = Concentration and elimination of ADP and its metabolites in liver, kidney, muscle, fat/skin after oral ^3H-ADP for 7 d; format: in vivo, swine; details: swine, oral, 5 mg/kg b.w.
Procedure: (§1) A total of 36 animals from each species (swine n = 24) were randomly assigned to six equal treatment groups and administered a single daily dose of ^3 H-ADP at 5 mg/kg b. w. (0.1 Ci/g) through oral gavage for 7 consecutive days. All the animals were housed on the basis of their group in the cages or aquaria throughout the whole study period. A group of animals was slaughtered through exsanguination under diethyl ether inhalation of anesthesia in the period of 6 h, 1, 3, 7, 14, and 21 d after the administration. The blood samples were immediately collected into the heparinized tubes and was centrifuged at 1920 × g at 4 °C for 10 min to obtain the plasma. The tissues from the heart, liver, spleen, lung, kidney, craw (broilers), stomach, intestine, fat, skin, muscle, thymus, pancreas, bile, bladder, hair (scale for carp), genital gland, adrenal glands, swim bladder (carp), brain, lymph, and bursa (broilers) were carefully excised and collected. The tissues were thoroughly rinsed with the deionized water to remove the residuary blood, blotted to dryness, and finally to perform the homogenization. In order to avoid cross-contamination the dissecting instruments were washed during the tissue procurements. The blank tissues were collected in order to provide control matrices. The total radioactivity levels in each sample were determined through LSC. The samples extracted from the plasma, bile, and tissues of the liver, kidney, muscle, and fat/skin were analyzed through LC/MS-IT-TOF and v. ARC radiometric detection for metabolite profiling. The blank samples were used as control to determine the background radioactivity or the endogenous nondrug-related ions observed within respective matrices or their extracts.
(§2) The feces and tissues (2 g) were diluted with a mixture of methanol and chloroform (1:3, v:v; 2 mL/g homogenate). This procedure was carried out in a fume hood for the safety aspects. The pH value was adjusted to 9.0 with NH4OH. The mixture was vortexed and sonicated for 5 min and 10 min, respectively, and finally the samples were centrifuged at 7690 × g for 10 min. The supernatant was aspirated and then transferred into a new centrifuge tube. The obtained pellet was again subjected to the same process of vortex, ultrasonication, extraction, and centrifugation. The combined supernatant was concentrated under a stream of nitrogen in a water bath at 40 °C. The residue was reconstituted with 0.3 mL of methanol–water (1:9, v:v) before the injection into the LC-v. ARC/MS-IT-TOF system for analysis.
(§3) ADP and its metabolites in the prepared samples were determined with a v. ARC radiometric detector and a hybrid IT/TOF mass spectrometer connected to the HPLC system (Shimadzu Corp., Kyoto, Japan). The LC system was equipped with a solvent delivery pump (LC-20AD), an auto-sampler (SIL-20AC), a degasser (DGU-20 A 3), a photodiode array detector (SPD-M20A), a communication base module (CBM-20 A), and a column oven (CTO-20AC). The chromatographic separation was achieved by using an Agilent extend-C18 column (2.1 mm × 150 mm, 5 μm) with a gradient mobile phase of A (0.01% ammonia and 5 mM ammonium acetate in water) and B (methanol) at a flow rate of 0.2 mL/min. The column temperature was maintained at 35 °C. Various HPLC methods were performed because of the large number of different metabolites to be analyzed. For the porcine sample, method 1 started at 5% B and increased to 20% B over 35 min, then to 55% B by 60 min, followed by re-equilibration for another 10 min. For the remaining samples, method 2 started at 10% B and increased to 60% B over 30 min, subsequently was maintained at 60% B for an additional 10 min, and then changed to 90% B over 2 min and maintained for 2 min. Afterwards, a re-equilibration step (decreased to 10% B over 1 min and maintained at 10% B for additional 9 min) was followed. For each matrix, more than 98% of the radioactivity injected into the column was eluted during the running time of the gradient program. […]

[2] = Metabolite profiling of ADP in excreta, plasma and bile (LC-v.ARC/MS-IT-TOF); format: in vivo, swine; details: for percentage of the individual metabolite compared with the total concentration of ADP-related: within 6 h after dosing; for Average percentage of ADP and its metabolites in total dose: Swine, Urine, single oral 5 mg/kg b.w. ^3H-ADP
Procedure: (§4) Animals (4 swine, 6 broilers, 6 carp, and 3 male and 3 female rats) were housed individually in clean, suspended wire-mesh metabolism cages, designed to separate the urine from the feces (carp were raised in individual aquaria). Each animal was weighed and assigned with a permanent identification number. A single dose of ^3 H-ADP (5 mg/kg b. w., 0.1 Ci/g) was administered via the oral gavage. Excreta were collected on ice at the pre-administration, in the period of 6, 12, and 24 h on day 1 d, and afterwards, intermittently in the period of 24 h up to 14 d. The piscine excreta were collected by changing and collecting raised water. The total volume or weight of each sample was measured and homogenized. The total radioactivity levels were determined through LSC for the recovery calculations. After the preparation, the samples were analyzed through LC/MS-IT-TOF with v. ARC radiometric detection (XenoBioticLaboratories, Inc.) for metabolite profiling. The pretreatment samples were used as controls to determine the background radioactivity or the endogenous nondrug-related ions observed within respective matrices or their extracts.
as §1
(§5) For metabolite profiling, the urine and feces samples from each animals were pooled proportionally to the excreted amount in each sampling period from 0 to 6 h, 6 h to 1 d, 1 to 3 d, 3 to 7 d, and 7 to 14 d post-dose, respectively. All samples were fully homogenized before the process. The pre-dose and blank samples served as the controls for determining the background radioactivity or the endogenous, nondrug-related ions observed within respective matrices or their extracts.
(§6) The urine samples (plasma, bile and raised water for carp) was subjected to solid-phase extraction with an Oasis MCX cartridge (3 mL, […]; Waters, Milford, MA, USA) for metabolite purification and enrichment. The pH value was adjusted to 2.8–3.2 by adding 1 M hydrochloric acid (HCl), and 2 mL of the sample was transferred into MCX cartridge, which was preconditioned with 3 mL of methanol and 3 mL of 0.1 mol/L HCl solution. The cartridge was washed with 3 mL of 0.1 mol/L HCl solution and was eluted with 5 mL of NH4OH/methanol (4:96, v:v). The effluent was concentrated to dryness under a stream of nitrogen at 40 °C. […]

[3] = rats, within 3 d; cited from earlier work
[4] = Metabolite profiling of ADP in excreta, plasma and bile (LC-v.ARC/MS-IT-TOF); format: in vivo, rats
Procedure: as §4, §1, §5, §6

[5] = Concentration and elimination of ADP and its metabolites in liver, kidney, muscle, fat/skin after oral ^3H-ADP for 7 d; format: in vivo, rats; details: rat, liver, oral, 5 mg/kg b. w.
Procedure: as §1, §2, §3

[6] = as above; format: in vivo, broilers; details: broiler chicken, kidney, oral, 5 mg/kg b.w.
Procedure: as §1, §2, §3

[7] = Metabolite profiling of ADP in excreta, plasma and bile (LC-v.ARC/MS-IT-TOF); format: in vivo, broilers
Procedure: as §4, §1, §5, §6

Structure (SMILES)	concentration at 0.25 d ([1]; kidney) [ng/g]	concentration at 1 d ([1]; kidney) [ng/g]	concentration at 0.25 d ([1]; liver) [ng/g]	concentration at 1 d ([1]; liver) [ng/g]	percentage of the individual metabolite compared with the total concentration of ADP-related ([2]; Swine Plasma) [%]	percentage of the individual metabolite compared with the total concentration of ADP-related ([2]; Swine Urine) [%]	Average percentage of ADP and its metabolites in total dose [2] [%]	oral dose recovered [3]	Average percentage of ADP and its metabolites in total dose ([4]; Rat, Urine, single oral 5 mg/kg b.w. ^3H-ADP) [%]	percentage of the individual metabolite compared with the total concentration of ADP-related ([4]; Rats Urine, within 6 h after dosing) [%]	concentration at 0.25 d [5] [ng/g]	concentration at 0.25 d [6] [ng/g]	percentage of the individual metabolite compared with the total concentration of ADP-related ([7]; Broilers Extra (excreta), within 6 h after dosing) [%]	Average percentage of ADP and its metabolites in total dose ([7]; Broilers, Excreta, single oral 5 mg/kg b.w. ^3H-ADP) [%]
CNc1c(OC)cc(C(O)c2cnc(N)nc2N)cc1OC (stereo not drawn) [A5, 4-methylamino-α-OH-ADP]	710 ± 110	270 ± 150	430 ± 40	260 ± 40	1.6	1.2	1.9	–	–	–	–	–	–	–
COc1cc(Cc2cnc(N)nc2N)cc(OC)c1OC [TMP, trimethoprim]	–	–	–	–	–	–	–	more than 95 % of the oral dose	–	–	–	–	–	–
COc1cc(C(O)c2cnc(N)nc2N)cc(O)c1N(C)C (stereo not drawn) [A6, 3-OH-α-OH-ADP]	690 ± 100	60 ± 30	360 ± 40	–	3.8	6.4	3.7	–	0.5	3.1	10 ± 10	–	–	–
COc1cc(Cc2cnc(N)nc2N)cc(O)c1N(C)C [A3, 3-OH-ADP]	–	–	940 ± 170	–	–	9.7	5.4	–	–	–	–	110 ± 90	3.5	6.4
CNc1c(O)cc(C(O)c2cnc(N)nc2N)cc1OC (stereo not shown) [A4, 3-OH-4-methylamino-ADP]	520 ± 80	480 ± 260	320 ± 30	270 ± 40	4.6	4.8	3.1	–	–	–	–	–	–	–
CNc1c(O)cc(Cc2cnc(N)nc2N)cc1OC [A7, 4-methylamino-3-OH-ADP]	–	–	790 ± 170	450 ± 90	–	1.9	1.8	–	–	–	–	–	–	–
COc1cc(C(O)c2cnc(N)nc2N)cc(OC)c1N(C)C (stereo not drawn) [A8, α-OH-ADP]	–	–	20	–	–	1.4	1.0	–	–	–	–	–	–	–
